Measurements taken from patent US7192746B2, “α-Isomaltosyltransferase, process for producing the same and use thereof” (Kabushiki Kaisha Hayashibara Seibutsu Kagaku Kenkyujo, priority 2000, dated 2007).
Read-outs that look alike come from different tables or passages of the source.

Tests used:
Format in all cases: biochemical
[1] = tested on: α-isomaltosyl-transferring enzyme from Bacillus globisporus C9; test: Influence of metal ions on enzyme activity; settings: enzyme of Strain C9; for Relative activity: 1 mM metal ion; for Effect on enzyme activity: 1 mM
Description: (§1) The activity of the enzyme was assayed by dissolving panose in 100 mM acetate buffer (pH 6.0) to give a concentration of two percent (w/v) for a substrate solution, adding a 0.5 ml of an enzyme solution to a 0.5 ml of the substrate solution, enzymatically reacting the mixture solution at 35° C. for 30 min, suspending the reaction mixture by boiling for 10 min, and quantifying glucose by the glucose oxidation method. One unit activity of the α-isomaltosyl-transferring enzyme is defined as the enzyme amount that forms one micromole of glucose per minute under the above enzymatic reaction conditions. Throughout the specification, the enzymatic activity of the α-isomaltosyl-transferring enzyme means the unit(s) assayed as above.
The influence of metal ions on the activity of α-isomaltosyl-transferring enzyme was examined in the presence of 1 mM of each metal-ion according to the assay for the enzyme activity.

[2] = tested on: α-isomaltosyl-transferring enzyme from Arthrobacter ramosus S1; test: Influence of metal ions on enzyme activity; settings: enzyme of Strain S1; for Relative activity: 1 mM metal ion; for Effect on enzyme activity: 1 mM
Description: as §1
(§2) The influence of metal ions on the activity of α-isomaltosyl-transferring enzyme was examined in the presence of 1 mM of a metal ion according to the assay for the enzyme activity.

[3] = tested on: α-isomaltosyl-transferring enzyme from Bacillus globisporus C11; test: Influence of metal ions on enzyme activity; settings: enzyme of Strain C11; for Relative activity: 1 mM metal ion; for Effect on enzyme activity: 1 mM
Description: as §1, §2

[4] = tested on: α-isomaltosyl-transferring enzyme from Bacillus globisporus N75
Description: as §1, §2

[5] = tested on: α-isomaltosyl-transferring enzyme from Arthrobacter globiformis A19; test: Action on saccharides (substrates, TLC); design: key: −: there was found no substrate change before and after the enzymatic reaction; +: there were found both the reduction of substrate and the formation of cyclotetrasaccharide after the enzymatic reaction; settings: partially purified enzyme, 2 units/g substrate, 2% (w/v) substrate, 30° C., pH 6.0, 24 hours
In short: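 Purified enzyme (partially purified for A. globiformis A19) at 2 units/g substrate acted on each saccharide at 2% (w/v), pH 6.0, 30° C., 24 h. Pre- and post-reaction mixtures ran on silica gel TLC in n-butanol/pyridine/water (6:4:1). Total sugars were stained by sulfuric acid-methanol and reducing sugars by diphenylamine-aniline.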

[6] = tested on: α-isomaltosyl-transferring enzyme from Arthrobacter ramosus S1; test: Action on saccharides (substrates, TLC); design: key: −: there was found no substrate change before and after the enzymatic reaction; +: there were found both the reduction of substrate and the formation of cyclotetrasaccharide after the enzymatic reaction; settings: 2 units/g substrate, 2% (w/v) substrate, 30° C., pH 6.0, 24 hours
In short: (§3)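 Each candidate saccharide, from malto- and isomalto-oligosaccharides to cyclodextrins, starch, pullulan and dextran, was prepared at 2% (w/v). Two units/g substrate of enzyme were added, then the mixture was held at pH 6.0, 30° C., 24 hours. Samples were then analysed by silica gel TLC.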

[7] = tested on: α-isomaltosyl-transferring enzyme from Bacillus globisporus C11; test: Action on saccharides (substrates, TLC); design: key: −: there was found no substrate change before and after the enzymatic reaction; +: there were found both the reduction of substrate and the formation of cyclotetrasaccharide after the enzymatic reaction; settings: 2 units/g substrate, 2% (w/v) substrate, 30° C., pH 6.0, 24 hours
In short: as §3

[8] = tested on: α-isomaltosyl-transferring enzyme from Bacillus globisporus C9; test: Action on saccharides (substrates, TLC); design: key: −: there was found no substrate change before and after the enzymatic reaction; +: there were found both the reduction of substrate and the formation of cyclotetrasaccharide after the enzymatic reaction; settings: 2 units/g substrate, 2% (w/v) substrate, 30° C., pH 6.0, 24 hours
In short: as §3

[9] = tested on: α-isomaltosyl-transferring enzyme from Bacillus globisporus N75; test: Action on saccharides (substrates, TLC); design: key: −: there was found no substrate change before and after the enzymatic reaction; +: there were found both the reduction of substrate and the formation of cyclotetrasaccharide after the enzymatic reaction; settings: 2 units/g substrate, 2% (w/v) substrate, 30° C., pH 6.0, 24 hours
In short: as §3

[10] = tested on: α-isomaltosyl-transferring enzyme from Arthrobacter globiformis A19; test: Specificity to transferring acceptor; settings: partially purified enzyme, panose as saccharide donor, 10 units/g substrate, 3.2% (w/v), 30° C., pH 6.0, 24 hours
In short: (§4)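 Each candidate acceptor was mixed with panose donor at equal concentration, then given 10 units/g substrate of enzyme (purified, or partially purified for strain A19) at 3.2% (w/v) total saccharide. Reactions ran 24 hours at 30° C., pH 6.0, and were scored for presence or absence of transfer product.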

[11] = tested on: α-isomaltosyl-transferring enzyme from Arthrobacter ramosus S1; test: Specificity to transferring acceptor; settings: panose as saccharide donor, 10 units/g substrate, 3.2% (w/v), 30° C., pH 6.0, 24 hours
In short: as §4

[12] = tested on: α-isomaltosyl-transferring enzyme from Bacillus globisporus C11; test: Specificity to transferring acceptor; settings: panose as saccharide donor, 10 units/g substrate, 3.2% (w/v), 30° C., pH 6.0, 24 hours
In short: as §4

[13] = tested on: α-isomaltosyl-transferring enzyme from Bacillus globisporus C9; test: Specificity to transferring acceptor; settings: panose as saccharide donor, 10 units/g substrate, 3.2% (w/v), 30° C., pH 6.0, 24 hours
In short: as §4

[14] = tested on: α-isomaltosyl-transferring enzyme from Bacillus globisporus N75; test: Specificity to transferring acceptor; settings: panose as saccharide donor, 10 units/g substrate, 3.2% (w/v), 30° C., pH 6.0, 24 hours
In short: as §4

[15] = 1 mM metal ion, enzyme of Strain N75

Molecule	Relative activity [1] [%]	Relative activity [2] [%]	Relative activity [3] [%]	Relative activity [4, 15] [%]	also measured
[Al+3] [Al^3+]	103	93	89	94	
[Ba+2] [Ba^2+]	102	97	90	102	
[Ca+2] [Ca^2+]	101	103	91	100	Effect on enzyme activity [1]: neither activated; Effect on enzyme activity [2]: neither activated; Effect on enzyme activity [3]: neither activated; Effect on enzyme activity ([4]; 1 mM, enzyme of Strain N75): neither activated
[Co+2] [Co^2+]	103	91	89	92	
[Cu+2] [Cu^2+]	57	2	56	15	Effect on enzyme activity [1]: also inhibited; Effect on enzyme activity [2]: also inhibited; Effect on enzyme activity [3]: also inhibited; Effect on enzyme activity ([4]; 1 mM, enzyme of Strain N75): also inhibited
O=C(O)CN(CCN(CC(=O)O)CC(=O)O)CC(=O)O [EDTA]	104	91	98		Effect on enzyme activity [1]: nor inhibited; Effect on enzyme activity [2]: nor inhibited; Effect on enzyme activity [3]: nor inhibited; Effect on enzyme activity [4]: nor inhibited; Relative activity [4]: 92%
[Fe+2] [Fe^2+]	96	105			Relative activity ([1]; listed as Fe^3+): 105%; Relative activity ([2]; listed as Fe^3+): 75%
[Hg+2] [Hg^2+]	1	0.1	2	0.5	Effect on enzyme activity [1]: greatly inhibited; Effect on enzyme activity [2]: greatly inhibited; Effect on enzyme activity [3]: greatly inhibited; Effect on enzyme activity ([4]; 1 mM, enzyme of Strain N75): greatly inhibited
[Mg+2] [Mg^2+]		99	91	95	
[Mn+2] [Mn^2+]	106		93	101	
[Ni+2] [Ni^2+]	102	87	89	91	
[Pb+2] [Pb^2+]	89	85	74	69	
[Sr+2] [Sr^2+]	101	101	93	91	
[Zn+2] [Zn^2+]	88	78	83	75	
maltotriose					Enzymatic action for forming cyclotetrasaccharide, Enzyme of Strain A19 [5]: −; Enzymatic action for forming cyclotetrasaccharide, Enzyme of Strain S1 [6]: −; Enzymatic action for forming cyclotetrasaccharide, Enzyme of Strain C11 [7]: −; Enzymatic action for forming cyclotetrasaccharide, Enzyme of Strain C9 [8]: −; Enzymatic action for forming cyclotetrasaccharide, Enzyme of Strain N75 [9]: −; Product of transferring reaction, Enzyme of Stain A19 [10]: + (a saccharide-transferred product was formed in an amount of over one percent but below 10% to the total sugars); Product of transferring reaction, Enzyme of Strain S1 [11]: ++ (a saccharide-transferred product was formed in an amount of over 10% to the total sugars); Product of transferring reaction, Enzyme of Strain C11 [12]: + (a saccharide-transferred product was formed in an amount of over one percent but below 10% to the total sugars); Product of transferring reaction, Enzyme of Strain C9 [13]: + (a saccharide-transferred product was formed in an amount of over one percent but below 10% to the total sugars); Product of transferring reaction, Enzyme of Strain N75 [14]: + (a saccharide-transferred product was formed in an amount of over one percent but below 10% to the total sugars)
